Data from patent US20230041563A1, “N-(1,3,4-OXADIAZOL-2-YL)ARYLCARBOXAMIDES OR SALTS THEREOF, PREPARATION METHODS, HERBICIDAL COMPOSITIONS AND USES THEREOF” (priority 2018, published 2023).

What was measured:
Green Setaria viridis = test: Post-emergence control experiment of R configuration compound activity (weeds 4-5 leaf stage, 25 days); type: in vivo; conditions: Setaria viridis, post-emergence; for inhibition at 30 g/ha: read-out: Green Setaria viridis (30 g a.i./ha) inhibition rate; for inhibition at 60 g/ha: read-out: Green Setaria viridis (60 g a.i./ha) inhibition rate
Procedure: (§1) Experiment on weeding effect in post-emergence stage: after 3-4 weeks of sowing, the test plants were treated in the 1.5-2 leaf stage of the directly sowed rice Longyang 16, and the 4-5 leaf stage of weeds. After the application of the compounds of the present invention, the plants were cultured for 25 days in the greenhouse, and then the experimental results of the weeding were counted.

Digitaria sanguinalis [1] = test: as above; type: in vivo; conditions: Digitaria sanguinalis, post-emergence; read-out: Digitaria sanguinalis (30 g a.i./ha) inhibition rate
Procedure: as §1

Abutilon theophrasti [2] = test: as above; type: in vivo; conditions: Abutilon theophrasti, post-emergence; read-out: Ablation theophrasti (30 g a.i./ha) inhibition rate
Procedure: as §1

Leptochloa chinensis [3] = test: as above; type: in vivo; conditions: for inhibition at 60 g/ha / inhibition at 125 g/ha: Dinebra chinensis, post-emergence; for inhibition at 60 g/ha: read-out: Leptochloa chinensis (60 g a.i./ha) inhibition rate; for inhibition at 125 g/ha: read-out: Leptochloa chinensis (125 g a.i./ha) inhibition rate
Procedure: as §1

Digitaria sanguinalis [4] = test: Weeding effect in post-emergence stage (greenhouse pot spray); type: in vivo
Method in brief: (§2)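 Greenhouse post-emergence test: compounds were sprayed at 500, 250, 125, 60 and 15 g a.i./ha onto plants 2 weeks after sowing, and fresh weight control rates were averaged from three replicates 3 weeks later.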

Setaria viridis = test: as above; type: in vivo
Method in brief: as §2

Echinochloa crusgalli = test: as above; type: in vivo
Method in brief: as §2

Rice (Longyang 16) = test: Post-emergence control experiment of R configuration compound activity (directly sowed rice 1.5-2 leaf stage, 25 days); type: in vivo
Procedure: as §1
Longyang 16 is a representative and important long-grain fragrant rice in Northeast China. Long-grain fragrant rice is more sensitive to herbicides, especially to HPPD herbicides such as Mesotrione, Benzobicylon and the like, which are prone to causing phytotoxicity.

Rice = test: Transplanted rice safety evaluation and weed control effect evaluation in rice field; type: in vivo, rice (japonica rice/Indica rice)
Procedure: (§3) Transplanted rice safety evaluation and weed control effect evaluation in rice field:
In addition, the rice field soil that loaded into the 1/1,000,000 ha pot was leveled to keep water storage at 3-4 cm depth. The 3 leaf stage rice (japonica rice/Indica rice) was transplanted at 3 cm of transplanting depth the next day. The compound of the present invention was treated by the same way after 5 days of transplantation.
(§4) The fertility condition of echinochloa crusgali, scirpus juncoides, Bidens tripartita, Leptochloa chinensis, Sagittaria trifolia and Monochoria vaginalis 14 days after the treatment of the compound of the invention and the fertility condition of rice 21 days after the treatment of the compound of the invention respectively with the naked eye. Evaluate the weed control effect with 0-5 activity standard level. Many compounds show excellent activity and selectivity.

Monochoria vaginalis = test: as above; type: in vivo
Description: as §3
(§5) Rice field soil was loaded into a 1/1,000,000 ha pot. The seeds of echinochloa crusgali, scirpus juncoides, Bidens tripartita, Sagittaria trifolia, Monochoria vaginalis and Leptochloa chinensis were sowed and gently covered with soil, then left to stand still in greenhouse in the state of 0.5-1 cm of water storage. The tuber of Sagittaria trifolia was planted in the next day or 2 days later. It was kept at 3-4 cm of water storage thereafter. The weeds were treated by dripping the WP or SC water diluents prepared according to the common preparation method of the compounds of the present invention with pipette homogeneously to achieve specified effective amount when echinochloa crusgali, scirpus juncoides, Bidens tripartita, Monochoria vaginalis and Leptochloa chinensis reached 0.5 leaf stage and Sagittaria trifolia reached the time point of primary leaf stage.
as §4

Sagittaria trifolia = test: as above; type: in vivo; conditions: Table 8, dose 60 g a.i./ha
Description: as §3, §5, §4

Echinochloa crusgali = test: as above; type: in vivo
Description: as §3, §5, §4

Leptochloa chinensis [5] = test: as above; type: in vivo; conditions: Table 8, dose 60 g a.i./ha
Description: as §3, §5, §4

Abutilon theophrasti [6] = test: Weeding effect in post-emergence stage (greenhouse pot spray); type: in vivo
Method in brief: as §2

Amaranthus retroflexus = test: as above; type: in vivo
Method in brief: as §2

Stellaria media = test: as above; type: in vivo
Method in brief: as §2

[7] = system: gramineous weed (Echinochloa crusgali, Leptochloa chinensis or Digitaria sanguinalis); test: Post-emergence activity on gramineous weed, comparison between compounds; type: in vivo; conditions: at low doses; versus Compound 1-2
Description: Experiment on weeding effect in post-emergence stage: monocotyledonous and dicotyledonous weed seeds (Descurainia sophia, Capsella bursa-pastoris, Abutilon theophrasti, Galium aparine, Stellaria media, Lithospermum arvense, rorippa indica, Alopecurus aequalis, Beckmannia syzigachne, Sclerochloa dura, Phleum paniculatum, Bromus japonicus, Aegilops tauschii, Phalaris arundinacea, Amaranthus retroflexus, Chenopodiaceae, Commelina communis, Sonchus arvensis, convolvulus arvensis, Cirsium setosum, Solanum nigrum, Acalypha australis, Digitaria sanguinalis, Echinochloa crusgalli, Setaria viridis, Setaria glauca, Leptochloa chinensis, Monochoria vaginalis, Sagittaria trifolia, Scirpus juncoides, Cyperus rotundus, Cyperus iria, Cyperus difformis, Fimbristylis, Portulaca oleracea, Xanthium sibiricum, Pharbitis nil) and major crop seeds (wheat, corn, rice, soybean, cotton, oilseed rape, millet, sorghum, potato, sesame, ricinus) were placed in plastic pots filled with soil, then covered with 0.5-2 cm of soil, allowed to grow in a good greenhouse environment. After 2 weeks of sowing, the test plants were treated in the 2 to 3 leaf stage. […] After the application, the plants were cultured for 3 weeks in the greenhouse, and then the experimental results of the weeding were counted. […]

[8] = system: rice and Echinochloa crusgali; test: Herbicide selection index between rice and Echinochloa crusgali; type: in vivo; conditions: average dose causing 10% phytotoxicity to rice divided by average dose causing 90% control efficiency to Echinochloa crusgali
[9] = system: Japonica rice (Huaidao No. 5); test: Safety test of control experiments on rice; type: in vivo; conditions: Dose 250 g a.i./ha
Description: (§6) The activity level criteria for plant damage (i.e., growth control rate) are as follows: Comparative Experiments: [table]

[10] = system: Indica rice (Huanghuazhan); test: Safety test of control experiments on rice; type: in vivo; conditions: Dose 250 g a.i./ha
Description: as §6

Scirpus juncoides = test: Transplanted rice safety evaluation and weed control effect evaluation in rice field; type: in vivo; conditions: Table 7, dose 125 g a.i./ha, 14 days after treatment
Description: as §3, §5, §4

[11] = Table 7, dose 125 g a.i./ha, 14 days after treatment

Structure (SMILES): CCC[S@@+]([O-])c1c(C(F)(F)F)ccc(C(=O)Nc2nnc(C)o2)c1F [1-8 (R-configuration)]
- inhibition at 30 g/ha (Green Setaria viridis): 75%
- inhibition at 60 g/ha (Green Setaria viridis): 100%
- inhibition at 30 g/ha (Digitaria sanguinalis [1]): 100%
- inhibition at 30 g/ha (Abutilon theophrasti [2]): 100%
- inhibition at 60 g/ha (Leptochloa chinensis [3]): 85%
- inhibition at 125 g/ha (Leptochloa chinensis [3]): 100%
- activity against key weed Leptochloa chinensis / key weeds, in words (Leptochloa chinensis [3]; in vivo): better activity
- Digitaria sanguinahs (activity level) (Digitaria sanguinalis [4]; Table 3, dose 3.75 g a.i./ha): 4 (Level 4: growth control rate is greater than or equal to 60% and less than 85%)
- Digitaria sanguinahs (activity level) (Digitaria sanguinalis [4]; Table 3, dose 7.5 g a.i./ha): 5 (Level 5: growth control rate is above 85%)
- Digitaria sanguinahs (activity level) (Digitaria sanguinalis [4]; Table 3, dose 15 g a.i./ha): 5 (Level 5: growth control rate is above 85%)
- Digitaria sanguinahs (activity level) (Digitaria sanguinalis [4]; Table 3, dose 30 g a.i./ha): 5 (Level 5: growth control rate is above 85%)
- Digitaria sanguinahs (activity level) (Digitaria sanguinalis [4]; Table 3, dose 60 g a.i./ha): 5 (Level 5: growth control rate is above 85%)
- Setaria viridis (activity level) (Setaria viridis; Table 3, dose 3.75 g a.i./ha): 2 (Level 2: growth control rate is greater than or equal to 20% and less than 40%)
- Setaria viridis (activity level) (Setaria viridis; Table 3, dose 7.5 g a.i./ha): 4 (Level 4: growth control rate is greater than or equal to 60% and less than 85%)
- Setaria viridis (activity level) (Setaria viridis; Table 3, dose 15 g a.i./ha): 5 (Level 5: growth control rate is above 85%)
- Setaria viridis (activity level) (Setaria viridis; Table 3, dose 30 g a.i./ha): 5 (Level 5: growth control rate is above 85%)
- Setaria viridis (activity level) (Setaria viridis; Table 3, dose 60 g a.i./ha): 5 (Level 5: growth control rate is above 85%)
- Echinochloa crusgali (activity level) (Echinochloa crusgalli; Table 3, dose 3.75 g a.i./ha): 5 (Level 5: growth control rate is above 85%)
- Echinochloa crusgali (activity level) (Echinochloa crusgalli; Table 3, dose 7.5 g a.i./ha): 5 (Level 5: growth control rate is above 85%)
- Echinochloa crusgali (activity level) (Echinochloa crusgalli; Table 3, dose 15 g a.i./ha): 5 (Level 5: growth control rate is above 85%)
- Echinochloa crusgali (activity level) (Echinochloa crusgalli; Table 3, dose 30 g a.i./ha): 5 (Level 5: growth control rate is above 85%)
- Echinochloa crusgali (activity level) (Echinochloa crusgalli; Table 3, dose 60 g a.i./ha): 5 (Level 5: growth control rate is above 85%)
- Rice (Longyang 16) (250 g a.i./ha) inhibition rate (Rice (Longyang 16)): 0%
- Rice (Longyang 16) (500 g a.i./ha) inhibition rate (Rice (Longyang 16)): 0%
- safety on rice (Longyang 16), in words (Rice (Longyang 16); in vivo): high safety
- Rice (safety level) (Rice; Table 8, dose 60 g a.i./ha): 0 (Level 0: growth control rate is less than 5%)
- Monochoria vaginalis (activity level) (Monochoria vaginalis; Table 8, dose 60 g a.i./ha): 5 (Level 5: growth control rate is above 85%)
- Sagittaria trifolia (activity level) (Sagittaria trifolia): 5 (Level 5: growth control rate is above 85%)
- Echinochloa crusgali (activity level) (Echinochloa crusgali; Table 8, dose 60 g a.i./ha): 5 (Level 5: growth control rate is above 85%)
- Leptochloa chinensis (activity level) (Leptochloa chinensis [5]): 5 (Level 5: growth control rate is above 85%)

Structure (SMILES): CCC[S+]([O-])c1c(C(F)(F)F)ccc(C(=O)Nc2nnc(C)o2)c1F (stereo not drawn) [Compound 1-8]
- inhibition at 30 g/ha (Green Setaria viridis): 10%
- inhibition at 60 g/ha (Green Setaria viridis): 90%
- inhibition at 30 g/ha (Digitaria sanguinalis [1]): 80%
- inhibition at 30 g/ha (Abutilon theophrasti [2]): 90%
- inhibition at 60 g/ha (Leptochloa chinensis [3]): 30%
- inhibition at 125 g/ha (Leptochloa chinensis [3]): 80%
- Digitaria sanguinalis (activity level) (Digitaria sanguinalis [4]; Table 2, dose 60 g a.i./ha): 5 (Level 5: growth control rate is above 85%)
- Digitaria sanguinalis (activity level) (Digitaria sanguinalis [4]; Table 2, dose 125 g a.i./ha): 5 (Level 5: growth control rate is above 85%)
- Digitaria sanguinahs (activity level) (Digitaria sanguinalis [4]; Table 3, dose 60 g a.i./ha): 5 (Level 5: growth control rate is above 85%)
- Abutilion theophrasti (activity level) (Abutilon theophrasti [6]; Table 2, dose 60 g a.i./ha): 5 (Level 5: growth control rate is above 85%)
- Abutilion theophrasti (activity level) (Abutilon theophrasti [6]; Table 2, dose 125 g a.i./ha): 5 (Level 5: growth control rate is above 85%)
- Abutilon theophrasti (activity level) (Abutilon theophrasti [6]; Table 3, dose 60 g a.i./ha): 5 (Level 5: growth control rate is above 85%)
- Setaria viridis (activity level) (Setaria viridis; Table 3, dose 60 g a.i./ha): 5 (Level 5: growth control rate is above 85%)
- Echinochloa crusgah (activity level) (Echinochloa crusgalli; Table 2, dose 60 g a.i./ha): 5 (Level 5: growth control rate is above 85%)
- Echinochloa crusgah (activity level) (Echinochloa crusgalli; Table 2, dose 125 g a.i./ha): 5 (Level 5: growth control rate is above 85%)
- Echinochloa crusgali (activity level) (Echinochloa crusgalli; Table 3, dose 60 g a.i./ha): 5 (Level 5: growth control rate is above 85%)
- Rice (Longyang 16) (250 g a.i./ha) inhibition rate (Rice (Longyang 16)): 5%
- Rice (Longyang 16) (500 g a.i./ha) inhibition rate (Rice (Longyang 16)): 15%
- Amaranthus retroflexus (activity level) (Amaranthus retroflexus; Table 2, dose 60 g a.i./ha): 5 (Level 5: growth control rate is above 85%)
- Amaranthus retroflexus (activity level) (Amaranthus retroflexus; Table 2, dose 125 g a.i./ha): 5 (Level 5: growth control rate is above 85%)
- Stellaria media (activity level) (Stellaria media; Table 2, dose 60 g a.i./ha): 5 (Level 5: growth control rate is above 85%)
- Stellaria media (activity level) (Stellaria media; Table 2, dose 125 g a.i./ha): 5 (Level 5: growth control rate is above 85%)
- Rice (safety level) (Rice; Table 7, dose 125 g a.i./ha, 21 days after treatment): 0 (Level 0: growth control rate is less than 5%)
- activity on the gramineous weed relative to Compound 1-2 [7]: much more higher
- Selection index between rice and Echinochloa crusgali [8]: >5
- Japonica rice (Huaidao No. 5) (plant damage level) [9]: 0 (Level 0: growth control rate is less than 5%)
- Indica rice (Huanghuazhan) (plant damage level) [10]: 0 (Level 0: growth control rate is less than 5%)
- Monochoria vaginalis (activity level) (Monochoria vaginalis; [11]): 5 (Level 5: growth control rate is above 85%)
- Echinochloa crusgali (activity level) (Echinochloa crusgali; [11]): 5 (Level 5: growth control rate is above 85%)
- Scirpus juncoides (activity level) (Scirpus juncoides): 5 (Level 5: growth control rate is above 85%)
